Experimental data from patent publication US20040266732A1, “Therapeutic agents, methods, and treatments” (priority 2002, published 2004).

How the values were obtained:
Test in all cases: NCI 60 cell-line test
Assay type in all cases: cell-based, human
HCT-15 = HCT-15 (Colon Cancer)
Summary of the method: (§1)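 Growth inhibition over a 48 h continuous exposure was estimated by SRB protein assay in RPMI 1640 with 5% fetal bovine serum. A time-zero fixed plate allowed the net growth inhibition and cell-kill parameters to be calculated.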

RXF 393 = RXF 393 (Renal Cancer)
Summary of the method: as §1

T-47D = T-47D (Breast Cancer)
Summary of the method: as §1

A549/ATCC = A549/ATCC (Non-Small Cell Lung Cancer)
Summary of the method: as §1

SNB-75 = SNB-75 (CNS Cancer)
Summary of the method: as §1

TK-10 = TK-10 (Renal Cancer)
Summary of the method: as §1

CAKI-1 = CAKI-1 (Renal Cancer)
Summary of the method: as §1

NCI-H322M = NCI-H322M (Non-Small Cell Lung Cancer)
Summary of the method: as §1

SK-MEL-5 = SK-MEL-5 (Melanoma)
Summary of the method: as §1

SF-539 = SF-539 (CNS Cancer)
Summary of the method: as §1

NCI-H460 = NCI-H460 (Non-Small Cell Lung Cancer)
Summary of the method: as §1

HOP-62 = HOP-62 (Non-Small Cell Lung Cancer)
Summary of the method: as §1

SF-268 = SF-268 (CNS Cancer)
Summary of the method: as §1

HCT-116 = HCT-116 (Colon Cancer)
Summary of the method: as §1

SN12C = SN12C (Renal Cancer)
Summary of the method: as §1

[1] = read-out: LC50 (the source's name)

CC1(C)C2CC[C@@]1(CS(=O)(=O)N(C1CCCCC1)C1CCCCC1)C(O)C2 (stereo partly drawn) [MT103]
TGI (HCT-15): >1.00E−04 | IC50 (HCT-15; read-out: G150): 25.7 µM | CC50 (HCT-15; [1]): > 100 µM | TGI (RXF 393): 9.77E−05 | IC50 (RXF 393; read-out: G150): 24.2 µM | CC50 (RXF 393; [1]): > 100 µM | TGI (T-47D): >1.00E−04 | IC50 (T-47D; read-out: G150): 62 µM | CC50 (T-47D; [1]): > 100 µM | TGI (A549/ATCC): >1.00E−04 | IC50 (A549/ATCC; read-out: G150): 28.3 µM | CC50 (A549/ATCC; [1]): > 100 µM | LC50 (concentration killing 50% of tumour cells) (SNB-75): > 100 µM | TGI (SNB-75): 8.83E−05 | IC50 (SNB-75; read-out: G150): 19.5 µM | TGI (TK-10): 9.02E−05 | IC50 (TK-10; read-out: G150): 21.6 µM | CC50 (TK-10; [1]): > 100 µM | TGI (CAKI-1): 9.05E−05 | IC50 (CAKI-1; read-out: G150): 23.5 µM | CC50 (CAKI-1; [1]): > 100 µM | TGI (NCI-H322M): >1.00E−04 | IC50 (NCI-H322M; read-out: G150): 27.3 µM | CC50 (NCI-H322M; [1]): > 100 µM | TGI (SK-MEL-5): 3.61E−05 | IC50 (SK-MEL-5; read-out: G150): 16.8 µM | CC50 (SK-MEL-5; [1]): 77.7 µM | TGI (SF-539): >1.00E−04 | IC50 (SF-539; read-out: G150): 54.6 µM | CC50 (SF-539; [1]): > 100 µM | TGI (NCI-H460): >1.00E−04 | IC50 (NCI-H460; read-out: G150): 30.9 µM | CC50 (NCI-H460; [1]): > 100 µM | TGI (HOP-62): >1.00E−04 | IC50 (HOP-62; read-out: G150): 57.5 µM | CC50 (HOP-62; [1]): > 100 µM | TGI (SF-268): >1.00E−04 | IC50 (SF-268; read-out: G150): 35.8 µM | CC50 (SF-268; [1]): > 100 µM | TGI (HCT-116): >1.00E−04 | IC50 (HCT-116; read-out: G150): 43.8 µM | CC50 (HCT-116; [1]): > 100 µM | TGI (SN12C): >1.00E−04 | IC50 (SN12C; read-out: G150): 33 µM | CC50 (SN12C; [1]): > 100 µM
